# From patent US9273057B2 (Bristol-Myers Squibb Company, priority 2012, dated 2016)
# Counter-ions that a name gives are not always drawn.
# Target: CK2A1 (CK2α/β) (Homo sapiens, UniProt P68400)
# Assay: CK2 kinase assay, CK2A1 (CK2α/β)
# Assay type: biochemical
# Details: Table A; read-out: CK2A1 (CK2α/β) (IC50)
# Chain of CK2A1 (CK2α/β) (P68400 whole entry, species assumed): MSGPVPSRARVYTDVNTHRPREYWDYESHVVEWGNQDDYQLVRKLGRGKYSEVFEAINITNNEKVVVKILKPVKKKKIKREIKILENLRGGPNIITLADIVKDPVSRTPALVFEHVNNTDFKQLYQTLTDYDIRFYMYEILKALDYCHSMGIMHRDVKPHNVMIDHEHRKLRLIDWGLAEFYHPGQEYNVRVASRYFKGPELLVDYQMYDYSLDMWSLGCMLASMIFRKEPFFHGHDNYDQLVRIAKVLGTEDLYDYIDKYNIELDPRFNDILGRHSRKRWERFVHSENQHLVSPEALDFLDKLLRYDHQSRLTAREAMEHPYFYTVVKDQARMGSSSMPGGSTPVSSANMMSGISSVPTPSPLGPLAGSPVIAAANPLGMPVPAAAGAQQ
# Chain of CK2A1 (CK2α/β) (P67870 whole entry partner, species assumed): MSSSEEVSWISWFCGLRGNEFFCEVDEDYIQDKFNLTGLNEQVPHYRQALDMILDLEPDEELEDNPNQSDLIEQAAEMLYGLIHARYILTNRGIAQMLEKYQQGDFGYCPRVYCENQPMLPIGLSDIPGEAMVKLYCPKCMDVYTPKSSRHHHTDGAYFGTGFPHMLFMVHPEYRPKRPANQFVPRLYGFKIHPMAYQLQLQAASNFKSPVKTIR
row,SMILES,IC50 [nM]
1,"COCC(O)CN1CCN(c2cc(C(F)F)cc(Nc3nc(NC4CC4)c4ncc(C#N)n4n3)c2Cl)CC1 (racemic) [Example 250, (+/−) 2-((2-chloro-5-(difluoromethyl)-3-(4-(2-hydroxy-3-methoxypropyl)-1-piperazinyl)phenyl)amino)-4-(cyclopropylamino)imidazo[2,1-f][1,2,4]triazine-7-carbonitrile]",0.73
2,"N#Cc1cnc2c(NC3CC3)nc(Nc3cc(C(F)F)cc(N4CC(NCC(O)CO)C4)c3Cl)nn12 (racemic) [Example 261, (+/−) 2-((2-chloro-5-(difluoromethyl)-3-(3-((2,3-dihydroxypropyl)amino)-1-azetidinyl)phenyl)amino)-4-(cyclopropylamino)imidazo[2,1-f][1,2,4]triazine-7-carbonitrile]",2.44
3,"COC(CO)CNC1CN(c2cc(C(F)F)cc(Nc3nc(NC4CC4)c4ncc(C#N)n4n3)c2Cl)C1 (racemic) [Example 262, (+/−) 2-((2-chloro-5-(difluoromethyl)-3-(3-((3-hydroxy-2-methoxypropyl)amino)-1-azetidinyl)phenyl)amino)-4-(cyclopropylamino)imidazo[2,1-f][1,2,4]triazine-7-carbonitrile]",5
4,"CC(C)(O)C1CN(c2cc(C(F)F)cc(Nc3nc(NC4CC4)c4ncc(C#N)n4n3)c2Cl)CCO1 (racemic) [Example 280, (+/−) 2-((2-chloro-5-(difluoromethyl)-3-(2-(1-hydroxy-1-methylethyl)-4-morpholinyl)phenyl)amino)-4-(cyclopropylamino)imidazo[2,1-f][1,2,4]triazine-7-carbonitrile]",2.09
5,"N#Cc1cc(Nc2nc(NC3CC3)c3ncc(C#N)n3n2)c(Cl)c(N2CCN(C3COC3)C(CF)C2)c1 (racemic) [Example 312, (+/−)2-((2-chloro-5-cyano-3-(3-(fluoromethyl)-4-(oxetan-3-yl)piperazin-1-yl)phenyl)amino)-4-(cyclopropylamino)imidazo[2,1-f][1,2,4]triazine-7-carbonitrile]",0.37
6,"CCNc1nc(Nc2cc(C#N)cc(N3CC[C@@H](NC(=O)OC)[C@H](OC(=O)C(C)OP(=O)(O)O)C3)c2Cl)nn2c(C#N)cnc12 (mixture of isomers) [Example 339, (+/−)-(3R,4R)-1-(2-chloro-5-cyano-3-((7-cyano-4-(ethylamino)imidazo[2,1-f][1,2,4]triazin-2-yl)amino)phenyl)-4-((methoxycarbonyl)amino)piperidin-3-yl 2-(phosphonooxy)propanoate]",0.47
7,"CCNc1nc(Nc2cc(C#N)cc(N3CCOC(C(C)(C)O)C3)c2Cl)nn2c(C#N)cnc12 (racemic) [Example 361, (+/−) 2-((2-chloro-5-cyano-3-(2-(1-hydroxy-1-methylethyl)-4-morpholinyl)phenyl)amino)-4-(ethylamino)imidazo[2,1-f][1,2,4]triazine-7-carbonitrile]",0.85
8,"CCNc1nc(Nc2cc(C#N)cc(N3CC[C@H]4NC(=O)CO[C@@H]4C3)c2Cl)nn2c(C#N)cnc12 (racemic) [Example 370, (+/−)-2-((2-chloro-5-cyano-3-((4aR,8aR)-2-oxohexahydro-1H-pyrido[3,4-b][1,4]oxazin-6(7H)-yl)phenyl)amino)-4-(ethylamino)imidazo[2,1-f][1,2,4]triazine-7-carbonitrile]",0.35

# Next, values leading:
row,IC50 [nM],SMILES
1,3.49,"N#Cc1cnc2c(NC3CC3)nc(Nc3cc(C(F)F)cc(N4CCN(C5CCOC5)CC4)c3Cl)nn12 (racemic) [Example 265, (+/−) 2-(2-chloro-5-(difluoromethyl)-3-(4-(tetrahydrofuran-3-yl)piperazin-1-yl)phenylamino)-4-(cyclopropylamino)imidazo[1,2-f][1,2,4]triazine-7-carbonitrile]"
2,2,"CC[C@H]1CN(c2cc(C#N)cc(Nc3nc(NC4CC4)c4ncc(C#N)n4n3)c2Cl)C[C@H]1NC(=O)OC (racemic) [Example 292, (+/−) methyl ((3S,4S)-1-(2-chloro-5-cyano-3-((7-cyano-4-(cyclopropylamino)imidazo[2,1-f][1,2,4]triazin-2-yl)amino)phenyl)-4-ethyl-3-pyrrolidinyl)carbamate]"
3,0.94,"CC[C@H]1CN(c2cc(C#N)cc(Nc3nc(NC4CC4)c4ncc(C#N)n4n3)c2Cl)CC[C@H]1NC(=O)OC (racemic) [Example 296, (+/−) methyl ((3S,4R)-1-(2-chloro-5-cyano-3-((7-cyano-4-(cyclopropylamino)imidazo[2,1-f][1,2,4]triazin-2-yl)amino)phenyl)-3-ethyl-4-piperidinyl)carbamate]"
4,3.05,"COC(=O)N[C@H]1CN(C2CN(c3cc(C#N)cc(Nc4nc(NC5CC5)c5ncc(C#N)n5n4)c3Cl)C2)C[C@@H]1OC (racemic) [Example 297, (+/−) methyl ((3S,4S)-1-(1-(2-chloro-5-cyano-3-((7-cyano-4-(cyclopropylamino)imidazo[2,1-f][1,2,4]triazin-2-yl)amino)phenyl)-3-azetidinyl)-4-methoxy-3-pyrrolidinyl)carbamate]"
5,1.62,"N#Cc1cc(Nc2nc(NC3CC3)c3ncc(C#N)n3n2)c(Cl)c(N2CCOC(C(=O)N3CCOCC3)C2)c1 (racemic) [Example 300, (+/−)2-((2-chloro-5-cyano-3-(2-(morpholine-4-carbonyl)morpholino)phenyl)amino)-4-(cyclopropylamino)imidazo[2,1-J][1,2,4]triazine-7-carbonitrile]"
6,0.72,"N#Cc1cc(Nc2nc(NC3CC3)c3ncc(C#N)n3n2)c(Cl)c(N2CC[C@@H](NC3COC3)[C@H](O)C2)c1 (racemic) [Example 301, (+/−)2-((2-chloro-5-cyano-3-((3R,4R)-3-hydroxy-4-(oxetan-3-ylamino)piperidin-1-yl)phenyl)amino)-4-(cyclopropylamino)imidazo[2,1-f][1,2,4]triazine-7-carbonitrile, HCl]"
7,0.65,"CO[C@@H]1CN(c2cc(C#N)cc(Nc3nc(NC4CC4)c4ncc(C#N)n4n3)c2Cl)C[C@H]1O (racemic) [Example 305, (+/−)-2-((2-chloro-5-cyano-3-((3R,4R)-3-hydroxy-4-methoxypyrrolidin-1-yl)phenyl)amino)-4-(cyclopropylamino)imidazo[2,1-f][1,2,4]triazine-7-carbonitrile, HCl]"
8,1.29,"N#Cc1cc(Nc2nc(NC3CC3)c3ncc(C#N)n3n2)c(Cl)c(N2CC[C@@H](N3CCOCC3)[C@H](O)C2)c1 (racemic) [Example 306, (+/−)-2-((2-chloro-5-cyano-3-((3R,4R)-3-hydroxy-4-morpholinopiperidin-1-yl)phenyl)amino)-4-(cyclopropylamino)imidazo[2,1-f][1,2,4]triazine-7-carbonitrile]"
9,2.87,"N#Cc1cc(Nc2nc(NC3CC3)c3ncc(C#N)n3n2)c(Cl)c(N2CC[C@H]3NC(=O)CO[C@@H]3C2)c1 (racemic) [Example 310, (+/−)-2-((2-chloro-5-cyano-3-((4aR,8aR)-2-oxohexahydro-1H-pyrido[3,4-b][1,4]oxazin-6(7H)-yl)phenyl)amino)-4-(cyclopropylamino)imidazo[2,1-f][1,2,4]triazine-7-carbonitrile, 2HCl]"
10,0.84,"CCNc1nc(Nc2cc(C#N)cc(N3CCC(NC)C3)c2Cl)nn2c(C#N)cnc12 (racemic) [Example 362, (+/−) 2-((2-chloro-5-cyano-3-(3-(methylamino)-1-pyrrolidinyl)phenyl)amino)-4-(ethylamino)imidazo[2,1-f][1,2,4]triazine-7-carbonitrile]"
